≈ marks a conversion by molar mass, not a printed value.
What was measured:
[1] = Thermodynamic solubility in PBS (pH 7.4); format: physicochemical; settings: aqueous buffer, thermodynamic from solid
[2] = biological target: T1, purified LasB (Pseudomonas aeruginosa, UniProt P14756); experiment: LasB inhibition, fluorimetric Abz-AGLA-Nba hydrolysis assay with purified LasB; format: biochemical
T1 construct: The mature LasB protein is a 33 kDa metalloprotease, which is secreted from P. aeruginosa; host or cells: P. aeruginosa PAO1 (native secretion, culture supernatant)
T1 sequence (P14756 198-498): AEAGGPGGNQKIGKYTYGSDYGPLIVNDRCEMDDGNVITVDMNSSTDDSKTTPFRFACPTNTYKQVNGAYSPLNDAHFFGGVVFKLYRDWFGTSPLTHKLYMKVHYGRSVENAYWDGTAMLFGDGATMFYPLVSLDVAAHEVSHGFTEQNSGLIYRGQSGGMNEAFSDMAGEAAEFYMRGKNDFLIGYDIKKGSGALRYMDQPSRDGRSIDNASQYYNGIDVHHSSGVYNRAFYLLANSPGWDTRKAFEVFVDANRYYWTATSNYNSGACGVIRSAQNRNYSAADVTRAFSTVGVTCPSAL
Excerpt: (§1) This was chosen as the starting point for a medicinal chemistry-driven lead optimization program aiming to improve potency and solubility whilst retaining selectivity against host metalloenzymes. All synthesized compounds were initially assessed in a fluorimetric assay measuring hydrolysis of a fluorogenic substrate Abz-Ala-Gly-Leu-Ala-4-nitrobenzylamide (Abz-AGLA-Nba) by purified LasB and IC50 values determined (Tables 1 and 2). Inhibition of elastin hydrolytic activity was confirmed using an orthogonal assay measuring hydrolysis of Elastin Congo Red (ECR) complex by LasB prepared directly from a P. aeruginosa culture supernatant (Tables 1 and 2). […] Aqueous solubility was determined for most compounds (Tables 1 and 2).
Native LasB protein was purified from culture supernatants of P. aeruginosa strain PAO1 (Charles River Laboratories, U.K.). Briefly, the sample was concentrated by ultrafiltration and the protein was purified by chromatography using an anion exchange (pH 8.5) step followed by gel filtration. This procedure yielded an enzyme preparation (0.8 mg/mL) of >98% purity. The enzyme was stored at −80 °C.
LasB inhibition assays were performed using purified LasB enzyme (1 ng/well) for compound screening or using culture supernatants (prepared as described in the ECR assay) for testing LasB variants. Hydrolysis of the fluorogenic peptide substrate 2-aminobenzoyl-Ala-Gly-Leu-Ala-4-nitrobenzylamide (Abz-AGLA-Nba; Peptide International) in 50 mM Tris-HCl (pH 7.4), supplemented with 2.5 mM CaCl2 was followed using an Envision microplate reader (PerkinElmer) at 315 nm excitation and 430 nm emission. For screening of lead compounds, assays were performed in the presence of 0.01% Triton X-100 with a range of inhibitor concentrations from 0.003 to 3.2 μM. IC50 values were determined from Hill plots using Dotmatics Studies ELN software. For the mechanism of inhibition studies, hydrolysis rates were measured in the presence of variable concentrations of substrate and inhibitor, and the inhibition constant (Ki) was determined using Dixon plot analysis.[31]

[3] = biological target: T2, LasB (P. aeruginosa PAO1 culture supernatant) (Pseudomonas aeruginosa, UniProt P14756); experiment: Elastin Congo Red (ECR) assay, elastin hydrolysis by dialyzed PAO1 culture supernatant; format: biochemical; settings: 25 μM inhibitor
T2 construct: The mature LasB protein is a 33 kDa metalloprotease, which is secreted from P. aeruginosa; endogenous in cells; host or cells: P. aeruginosa PAO1 culture supernatant, filtered and dialyzed
T2 sequence (P14756 198-498): as above
Excerpt: as §1
Inhibition of elastin hydrolysis by native LasB, secreted in P. aeruginosa culture supernatants, was measured using the Elastin Congo Red (ECR) assay. Culture supernatants from P. aeruginosa strain PAO1, grown in LB medium at 37 °C for 24 h, were filtered and dialyzed against 50 mM Tris-HCl pH 7.4, 2.5 mM CaCl2 solution at 4 °C and supplemented with 0.01%Triton X-100, 10 mg/mL ECR (Sigma) and 25 μM inhibitor compounds. The reaction mixture was incubated for 16 h at 37 °C with shaking before centrifugation and recovery of the supernatant and measurement of solubilized congo red by absorbance (OD495) using an EnSight multimode plate reader (PerkinElmer).

[4] = system: IL-1β activation; experiment: IL-1β activation in P. aeruginosa-infected THP-1 macrophages (HEK IL-1R-lux reporter assay); format: cell-based, human; settings: infected THP-1 cells, 5 μM
Experimental: (§2) Further to showing in vitro inhibition of LasB-mediated pro-IL-1β proteolysis, experiments were performed to determine the effect of compounds 12 and 16 on IL-1β activation and functionality in human macrophage cell cultures infected with P. aeruginosa PAO1, or an isogenic lasB deletion mutant thereof (ΔlasB). In these experiments, the levels of LasB activity in culture supernatants were measured via hydrolysis of the Sub115 fluorescent peptide, while the effect of LasB activity on IL-1β activation (functionality) was measured using a luciferase reporter cell line sensitive to IL-1β induction (Figure 3).
Human THP-1 macrophages were cultured by conventional methods then, pre-infection, culture media were replaced by RPMI lacking phenol red and antibiotics. […] After 2 h post-infection, 50 μL aliquots of supernatant were removed and used to quantitate both LasB activity and IL-1β functionality. To determine LasB activity, 50 μL of supernatant was added to Sub115 IL-1β peptide and hydrolysis of Sub115 was monitored spectrophotometrically with excitation at 355 nm and emission at 450 nm, as described above. Results were expressed as relative fluorescence units (RFU).
To determine IL-1β functionality, generation of an IL-1 signal was quantified by adding 50 μL of supernatant to HEK IL-1R-lux reporter cells cultured in RPMI supplemented with 5% heat-inactivated FBS, 200 μg/mL penicillin/streptomycin, 200 μg/mL hygromycin, 100 μg/mL zeomycin, and 0.5 μg/mL puromycin. No bacteria survived in this antibiotic condition; 18 h post-treatment, IL-1β-dependent luciferase induction was assayed by luminescence measured with D-luciferin substrate (Steady-Luc, Biotium) on a multimode reader (PerkinElmer) and expressed as relative luminescence units (RU), as previously described.[16]
In the first variation, experimental infections were performed with P. aeruginosa PAO1 and ΔlasB bacteria incubated with varying quantities of inhibitor at final concentrations ranging from 0.5 to 8 μM. […]

[5] = biological target: T3, secreted LasB in P. aeruginosa PAO1-infected THP-1 macrophages (Pseudomonas aeruginosa, UniProt P14756); experiment: LasB activity (Sub115 hydrolysis) in supernatants of P. aeruginosa-infected THP-1 macrophages; format: cell-based; settings: infected THP-1 cells, 5 μM
T3 construct: The mature LasB protein is a 33 kDa metalloprotease, which is secreted from P. aeruginosa; endogenous in cells; host or cells: P. aeruginosa PAO1 infecting human THP-1 macrophages (MOI 10:1); supernatant after 2 h
T3 sequence (P14756 198-498): as above
Experimental: as §2
Human THP-1 macrophages were cultured by conventional methods then, pre-infection, culture media were replaced by RPMI lacking phenol red and antibiotics. Compounds VX-765 (caspase-1 inhibitor, developed by Vertex) and/or LasB inhibitors were added, immediately followed by inoculation with P. aeruginosa PAO1 or an isogenic lasB deletion mutant (ΔlasB), previously grown in Luria broth to late exponential phase (OD600 = 1.2) then washed and diluted in PBS, at a multiplicity of infection (MOI) of 10 to 1. After 2 h post-infection, 50 μL aliquots of supernatant were removed and used to quantitate both LasB activity and IL-1β functionality. To determine LasB activity, 50 μL of supernatant was added to Sub115 IL-1β peptide and hydrolysis of Sub115 was monitored spectrophotometrically with excitation at 355 nm and emission at 450 nm, as described above. Results were expressed as relative fluorescence units (RFU).
In the first variation, experimental infections were performed with P. aeruginosa PAO1 and ΔlasB bacteria incubated with varying quantities of inhibitor at final concentrations ranging from 0.5 to 8 μM. In the second, cells were treated and infected in the same manner and also treated with 5 μM VX-765 to provide a control for IL-1β activation by the inflammasome pathway.

Q: Which solubility [1] does the source give for COc1cc2nc(CNC(=O)C3(CC(=O)O)Cc4ccccc4C3)sc2cc1OC [Compound 4] here?
A: 2000 µg/mL (≈ 4.69 mM)

Q: And the IC50 [2]?
A: 20 nM

Q: And the “Elastin hydrolysis @ 25 μM (% inh)” value [3]?
A: 82 % inh

Q: What does the source list for O=C(O)CC1(C(=O)NCc2nc3ccccc3s2)Cc2cc(F)c(F)cc2C1 [Compound 10]?
A: solubility [1]: 600 µg/mL (≈ 1.49 mM); IC50 [2]: 140 nM; Elastin hydrolysis @ 25 μM (% inh) [3]: 66 % inh

Q: With C[N+]1(C)CCN(c2ccc3nc(CNC(=O)C4(CC(=O)O)Cc5ccccc5C4)sc3c2)CC1 [Compound 8] as the compound, how does the solubility [1] read?
A: 18700 µg/mL

Q: What about the IC50 [2] of the same compound?
A: 1350 nM

Q: And the “Elastin hydrolysis @ 25 μM (% inh)” value [3]?
A: 33 % inh

Q: Which solubility [1] does the source give for CN(C)CCOc1ccc2sc(CNC(=O)C3(CC(=O)O)Cc4ccccc4C3)nc2c1 [Compound 7] here?
A: 4200 µg/mL (≈ 9.26 mM)

Q: What about the IC50 [2] of the same compound?
A: 670 nM

Q: And the “Elastin hydrolysis @ 25 μM (% inh)” value [3]?
A: 42 % inh

Q: With C[N+](C)(C)CCOc1ccc2sc(CNC(=O)C3(CC(=O)O)Cc4ccccc4C3)nc2c1 [Compound 9] as the compound, how does the solubility [1] read?
A: 18100 µg/mL

Q: What about the IC50 [2] of the same compound?
A: 820 nM

Q: What about the “Elastin hydrolysis @ 25 μM (% inh)” value [3] of the same compound?
A: 40 % inh

Q: Which solubility [1] does the source give for CN1CCN(c2ccc3nc(CNC(=O)C4(CC(=O)O)Cc5ccccc5C4)sc3c2)CC1 [Compound 6] here?
A: 3400 µg/mL (≈ 7.32 mM)

Q: What about the IC50 [2] of the same compound?
A: 1570 nM

Q: What about the “Elastin hydrolysis @ 25 μM (% inh)” value [3] of the same compound?
A: 39 % inh

Q: For COc1cc2sc(CNC(=O)C3(CC(=O)O)Cc4ccccc4C3)nc2cc1OCCCN(C)C [Compound 11], which IC50 [2] is on record?
A: 80 nM

Q: And the “Elastin hydrolysis @ 25 μM (% inh)” value [3]?
A: 69 % inh

Q: For CCO[C@@H]1OC(=O)C[C@@H]1NC(=O)[C@@H]1CCCN1C(=O)[C@@H](NC(=O)c1ccc(N)c(Cl)c1)C(C)(C)C [VX-765, reference compound], which “effect on IL-1β activation” value [4] is on record?
A: reduced IL-1β activation

Q: And the “effect on LasB activity” value [5]?
A: no effect

Q: With O=C(O)CC1(C(=O)NCc2nc3cc4c(cc3s2)OCO4)Cc2ccccc2C1 [Compound 5] as the compound, how does the solubility [1] read?
A: 2000 µg/mL (≈ 4.87 mM)

Q: What about the IC50 [2] of the same compound?
A: 120 nM

Q: And the “Elastin hydrolysis @ 25 μM (% inh)” value [3]?
A: 75 % inh

Q: With COc1cc2sc(CNC(=O)C3(CC(=O)O)Cc4cc(F)c(F)cc4C3)nc2cc1OCC1CC[N+](C)(C)CC1 [Compound 14] as the compound, how does the solubility [1] read?
A: 17800 µg/mL

Q: And the IC50 [2]?
A: 90 nM

Q: And the “Elastin hydrolysis @ 25 μM (% inh)” value [3]?
A: 72 % inh

Q: For COc1cc2sc(CNC(=O)C3(CC(=O)O)Cc4ccccc4C3)nc2cc1OCC1CC[N+](C)(C)CC1 [Compound 13], which solubility [1] is on record?
A: 15800 µg/mL

Q: What about the IC50 [2] of the same compound?
A: 130 nM

Q: What about the “Elastin hydrolysis @ 25 μM (% inh)” value [3] of the same compound?
A: 66 % inh

Q: For O=C(O)CC1(C(=O)NCc2nc3ccccc3s2)Cc2ccccc2C1 [Compound 1], which solubility [1] is on record?
A: 580 µg/mL (≈ 1.58 mM)

Q: What about the IC50 [2] of the same compound?
A: 410 nM

Q: What about the “Elastin hydrolysis @ 25 μM (% inh)” value [3] of the same compound?
A: 69 % inh

Q: For COc1ccc2sc(CNC(=O)C3(CC(=O)O)Cc4ccccc4C3)nc2c1 [Compound 3], which IC50 [2] is on record?
A: 150 nM

Q: And the “Elastin hydrolysis @ 25 μM (% inh)” value [3]?
A: 64 % inh

Q: What does the source list for COc1cc2sc(CNC(=O)C3(CC(=O)O)Cc4ccccc4C3)nc2cc1OCCC[N+](C)(CCO)CCO [Compound 15]?
A: solubility [1]: 17600 µg/mL; IC50 [2]: 190 nM; Elastin hydrolysis @ 25 μM (% inh) [3]: 69 % inh

Q: Which IC50 [2] does the source give for O=C(O)CC1(C(=O)NCc2nc3cc(Cl)ccc3s2)Cc2ccccc2C1 [Compound 2] here?
A: 350 nM

Q: And the “Elastin hydrolysis @ 25 μM (% inh)” value [3]?
A: 58 % inh

From publication PMC9926489, “Chemical Optimization of Selective Pseudomonas aeruginosa LasB Elastase Inhibitors and Their Impact on LasB-Mediated Activation of IL-1β in Cellular and Animal Infection Models” (ACS Infectious Diseases, 2023)
